The kinase profiling compilation of Christmann-Franck et al. (2016)
Values joined by “and” are separate entries in the source; they are usually repeats but may differ in a detail not shown here. Equal values may be shown once.

What was measured:
MELK (human) = MELK (human) (UniProt Q14680)
PKN2 (human) = PKN2 (human) (UniProt Q16513)
MAPK12 (human) = MAPK12 (human) (UniProt P53778)
MARK3 (human) = MARK3 (human) (UniProt P27448)
MAPK11 (human) = MAPK11 (human) (UniProt Q15759)
PDPK1 (human) = PDPK1 (human) (UniProt O15530)
DYRK2 (human) = DYRK2 (human) (UniProt Q92630)
EPHB3 (human) = EPHB3 (human) (UniProt P54753)
CHEK1 (human) = CHEK1 (human) (UniProt O14757)
PRKACA (human) = PRKACA (human) (UniProt P17612)
GSK3B (human) = GSK3B (human) (UniProt P49841)
CAMKK2 (human) = CAMKK2 (human) (UniProt Q96RR4)
PRKAA1 or PRKAA2 (rat) = conditions: accession and sequence are those of the human protein
IGF1R (human) = IGF1R (human) (UniProt P08069)
MAPK8 (human) = MAPK8 (human) (UniProt P45983)
ROCK2 (rat) = conditions: accession and sequence are those of the human protein
PLK1 (human) = PLK1 (human) (UniProt P53350)
IKBKE (human) = IKBKE (human) (UniProt Q14164)
CHEK2 (human) = CHEK2 (human) (UniProt O96017)
FLT1 (human) = FLT1 (human) (UniProt P17948)
FGFR1 (human) = FGFR1 (human) (UniProt P11362)
MAPKAPK5 (human) = MAPKAPK5 (human) (UniProt Q8IW41)
SYK (human) = SYK (human) (UniProt P43405)
SRPK1 (human) = SRPK1 (human) (UniProt Q96SB4)
PAK4 (human) = PAK4 (human) (UniProt O96013)
IKBKB (human) = IKBKB (human) (UniProt O14920)
AURKB (human) = AURKB (human) (UniProt Q96GD4)
PRKCA (human) = PRKCA (human) (UniProt P17252)
MAP2K1 (human) = MAP2K1 (human) (UniProt Q02750)
CDK2 CCNA2 (human) = CDK2 CCNA2 (human) (UniProt P20248+P24941)
BTK (human) = BTK (human) (UniProt Q06187)
HIPK2 (human) = HIPK2 (human) (UniProt Q9H2X6)
MAPKAPK2 (human) = MAPKAPK2 (human) (UniProt P49137)
PRKCZ (human) = PRKCZ (human) (UniProt Q05513)

Sequence of PDPK1 (human) (O15530 whole entry, looked up): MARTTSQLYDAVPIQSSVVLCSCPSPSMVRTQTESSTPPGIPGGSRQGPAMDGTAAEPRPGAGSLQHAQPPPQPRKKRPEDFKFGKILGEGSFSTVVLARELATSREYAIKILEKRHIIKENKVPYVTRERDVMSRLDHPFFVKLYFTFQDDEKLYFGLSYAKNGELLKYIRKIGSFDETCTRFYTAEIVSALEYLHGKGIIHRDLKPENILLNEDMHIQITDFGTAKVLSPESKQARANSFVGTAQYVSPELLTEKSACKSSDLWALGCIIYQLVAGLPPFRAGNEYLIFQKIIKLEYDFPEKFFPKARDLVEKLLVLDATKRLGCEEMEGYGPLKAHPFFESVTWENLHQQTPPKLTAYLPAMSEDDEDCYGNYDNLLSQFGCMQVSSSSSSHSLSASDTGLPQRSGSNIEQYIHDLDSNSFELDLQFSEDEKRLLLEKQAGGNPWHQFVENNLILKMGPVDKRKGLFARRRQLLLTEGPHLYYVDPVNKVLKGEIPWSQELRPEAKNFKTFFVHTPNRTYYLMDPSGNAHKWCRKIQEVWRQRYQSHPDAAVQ
Sequence of IKBKB (human) (O14920 whole entry, looked up): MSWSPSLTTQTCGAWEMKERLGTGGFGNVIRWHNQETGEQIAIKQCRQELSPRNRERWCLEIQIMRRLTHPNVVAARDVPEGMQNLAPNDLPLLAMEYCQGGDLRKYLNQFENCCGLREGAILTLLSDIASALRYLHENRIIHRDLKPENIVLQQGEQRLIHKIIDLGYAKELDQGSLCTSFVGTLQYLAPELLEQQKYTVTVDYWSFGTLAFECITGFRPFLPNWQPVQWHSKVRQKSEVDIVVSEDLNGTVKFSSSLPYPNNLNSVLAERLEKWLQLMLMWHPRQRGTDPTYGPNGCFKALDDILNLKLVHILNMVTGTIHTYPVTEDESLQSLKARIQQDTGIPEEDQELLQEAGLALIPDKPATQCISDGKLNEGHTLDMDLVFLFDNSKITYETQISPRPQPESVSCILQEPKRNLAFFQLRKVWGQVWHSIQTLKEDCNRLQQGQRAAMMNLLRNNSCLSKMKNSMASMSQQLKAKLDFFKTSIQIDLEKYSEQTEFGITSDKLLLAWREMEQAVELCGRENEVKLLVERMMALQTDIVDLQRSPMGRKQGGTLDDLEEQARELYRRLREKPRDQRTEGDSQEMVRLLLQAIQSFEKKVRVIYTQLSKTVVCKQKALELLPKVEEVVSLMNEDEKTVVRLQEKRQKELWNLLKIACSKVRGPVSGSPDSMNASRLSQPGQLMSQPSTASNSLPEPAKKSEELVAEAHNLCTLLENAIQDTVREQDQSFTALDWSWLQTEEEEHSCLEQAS
Sequence of FGFR1 (human) (P11362 whole entry, looked up): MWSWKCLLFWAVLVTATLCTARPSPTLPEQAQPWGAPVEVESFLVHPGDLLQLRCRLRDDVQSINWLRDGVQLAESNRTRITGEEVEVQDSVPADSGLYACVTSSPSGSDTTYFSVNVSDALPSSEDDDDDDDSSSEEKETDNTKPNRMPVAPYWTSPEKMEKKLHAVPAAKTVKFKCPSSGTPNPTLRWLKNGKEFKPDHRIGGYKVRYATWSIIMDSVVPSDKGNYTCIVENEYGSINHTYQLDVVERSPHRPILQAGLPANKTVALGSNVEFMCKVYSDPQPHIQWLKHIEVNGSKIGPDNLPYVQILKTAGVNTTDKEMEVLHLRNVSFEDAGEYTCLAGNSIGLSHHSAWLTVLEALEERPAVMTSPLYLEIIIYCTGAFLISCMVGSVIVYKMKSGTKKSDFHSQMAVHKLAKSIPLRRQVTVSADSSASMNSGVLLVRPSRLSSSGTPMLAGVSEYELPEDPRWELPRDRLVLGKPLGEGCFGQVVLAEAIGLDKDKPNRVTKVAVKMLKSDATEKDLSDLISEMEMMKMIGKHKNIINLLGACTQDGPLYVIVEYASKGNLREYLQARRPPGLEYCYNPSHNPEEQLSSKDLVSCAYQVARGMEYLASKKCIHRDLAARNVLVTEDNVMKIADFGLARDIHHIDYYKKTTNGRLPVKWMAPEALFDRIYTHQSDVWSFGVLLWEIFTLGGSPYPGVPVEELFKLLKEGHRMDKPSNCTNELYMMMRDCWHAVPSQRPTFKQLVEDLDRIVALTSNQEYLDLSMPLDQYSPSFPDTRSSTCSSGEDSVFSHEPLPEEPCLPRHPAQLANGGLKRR
Sequence of CHEK2 (human) (O96017 whole entry, looked up): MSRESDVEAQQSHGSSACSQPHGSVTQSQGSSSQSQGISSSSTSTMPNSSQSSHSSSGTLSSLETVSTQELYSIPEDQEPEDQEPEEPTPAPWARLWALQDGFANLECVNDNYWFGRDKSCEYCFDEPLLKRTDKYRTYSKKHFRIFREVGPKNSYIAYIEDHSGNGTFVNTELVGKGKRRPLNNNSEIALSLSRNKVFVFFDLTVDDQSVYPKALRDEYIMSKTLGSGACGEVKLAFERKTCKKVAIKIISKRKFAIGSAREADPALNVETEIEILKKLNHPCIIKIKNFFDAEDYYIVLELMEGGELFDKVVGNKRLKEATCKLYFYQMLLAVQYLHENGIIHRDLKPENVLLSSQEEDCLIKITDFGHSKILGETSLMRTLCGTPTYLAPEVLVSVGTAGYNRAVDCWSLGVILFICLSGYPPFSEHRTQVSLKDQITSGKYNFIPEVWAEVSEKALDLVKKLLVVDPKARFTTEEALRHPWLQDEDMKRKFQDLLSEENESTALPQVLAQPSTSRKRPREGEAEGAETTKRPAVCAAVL
Sequence of MAPKAPK2 (human) (P49137 whole entry, looked up): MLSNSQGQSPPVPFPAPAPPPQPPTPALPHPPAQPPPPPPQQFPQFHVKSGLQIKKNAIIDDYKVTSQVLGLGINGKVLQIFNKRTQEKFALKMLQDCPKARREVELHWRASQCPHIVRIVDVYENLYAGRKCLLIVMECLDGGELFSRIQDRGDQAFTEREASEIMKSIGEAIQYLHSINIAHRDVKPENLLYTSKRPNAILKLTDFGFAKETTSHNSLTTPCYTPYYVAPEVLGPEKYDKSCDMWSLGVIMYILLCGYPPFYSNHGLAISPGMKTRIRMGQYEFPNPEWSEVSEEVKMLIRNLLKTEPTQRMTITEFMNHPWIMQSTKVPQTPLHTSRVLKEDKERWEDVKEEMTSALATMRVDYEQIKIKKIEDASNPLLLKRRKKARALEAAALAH
Sequence of PAK4 (human) (O96013 whole entry, looked up): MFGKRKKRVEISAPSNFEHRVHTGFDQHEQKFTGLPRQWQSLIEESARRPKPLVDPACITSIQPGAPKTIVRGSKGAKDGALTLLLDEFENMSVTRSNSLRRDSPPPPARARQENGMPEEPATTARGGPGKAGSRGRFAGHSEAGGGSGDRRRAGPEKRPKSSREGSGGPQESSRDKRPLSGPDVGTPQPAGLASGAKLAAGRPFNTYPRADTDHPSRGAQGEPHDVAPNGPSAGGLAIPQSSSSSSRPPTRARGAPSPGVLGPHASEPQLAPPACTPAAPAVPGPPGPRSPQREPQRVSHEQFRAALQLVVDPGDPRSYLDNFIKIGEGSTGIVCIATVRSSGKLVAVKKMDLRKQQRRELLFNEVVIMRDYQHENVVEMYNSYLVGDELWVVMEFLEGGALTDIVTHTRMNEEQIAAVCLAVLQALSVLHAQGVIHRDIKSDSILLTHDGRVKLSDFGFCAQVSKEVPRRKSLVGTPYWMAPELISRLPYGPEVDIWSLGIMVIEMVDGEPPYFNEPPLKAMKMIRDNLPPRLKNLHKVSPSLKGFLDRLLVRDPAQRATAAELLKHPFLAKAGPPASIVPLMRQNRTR
Sequence of CAMKK2 (human) (Q96RR4 whole entry, looked up): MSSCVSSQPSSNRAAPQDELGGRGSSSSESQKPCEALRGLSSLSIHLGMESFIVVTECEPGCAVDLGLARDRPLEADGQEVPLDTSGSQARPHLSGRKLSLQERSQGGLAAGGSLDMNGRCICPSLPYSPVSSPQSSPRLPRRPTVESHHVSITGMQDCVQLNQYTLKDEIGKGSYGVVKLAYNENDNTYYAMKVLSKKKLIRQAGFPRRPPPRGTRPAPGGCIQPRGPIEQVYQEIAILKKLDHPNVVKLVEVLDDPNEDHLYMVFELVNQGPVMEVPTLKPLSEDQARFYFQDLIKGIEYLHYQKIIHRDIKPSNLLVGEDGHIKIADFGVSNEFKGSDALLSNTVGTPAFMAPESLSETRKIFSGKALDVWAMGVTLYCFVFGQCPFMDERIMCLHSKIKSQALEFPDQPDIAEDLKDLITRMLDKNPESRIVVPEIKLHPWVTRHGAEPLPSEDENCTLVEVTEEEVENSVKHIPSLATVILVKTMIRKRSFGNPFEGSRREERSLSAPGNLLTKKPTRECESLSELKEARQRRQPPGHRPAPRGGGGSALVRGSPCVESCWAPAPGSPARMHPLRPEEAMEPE
Sequence of GSK3B (human) (P49841 whole entry, looked up): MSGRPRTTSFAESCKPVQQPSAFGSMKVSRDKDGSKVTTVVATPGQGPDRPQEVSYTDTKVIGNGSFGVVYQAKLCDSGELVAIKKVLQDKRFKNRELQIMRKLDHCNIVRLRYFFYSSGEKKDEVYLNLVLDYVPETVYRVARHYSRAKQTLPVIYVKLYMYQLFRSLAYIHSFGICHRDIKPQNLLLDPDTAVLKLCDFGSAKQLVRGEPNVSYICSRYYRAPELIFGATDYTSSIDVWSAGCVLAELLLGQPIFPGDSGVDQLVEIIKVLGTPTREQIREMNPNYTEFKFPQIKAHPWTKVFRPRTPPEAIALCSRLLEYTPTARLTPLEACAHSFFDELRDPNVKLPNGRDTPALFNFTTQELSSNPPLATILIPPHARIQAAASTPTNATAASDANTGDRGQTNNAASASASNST
Sequence of AURKB (human) (Q96GD4 whole entry, looked up): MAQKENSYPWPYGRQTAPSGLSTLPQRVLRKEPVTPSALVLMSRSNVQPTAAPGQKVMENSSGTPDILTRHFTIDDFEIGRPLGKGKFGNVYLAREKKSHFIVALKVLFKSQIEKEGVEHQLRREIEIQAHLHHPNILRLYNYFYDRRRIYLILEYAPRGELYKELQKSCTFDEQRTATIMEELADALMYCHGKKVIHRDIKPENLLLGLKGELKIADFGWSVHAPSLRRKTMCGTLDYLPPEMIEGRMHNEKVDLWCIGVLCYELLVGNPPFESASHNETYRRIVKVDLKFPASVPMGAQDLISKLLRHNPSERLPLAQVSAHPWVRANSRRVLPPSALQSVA

Work on `COC(=O)Nc1ccc(-c2nc(N3CCOCC3)c3cnn(C4CCN(C(=O)OC)CC4)c3n2)cc1` yielded a per cent of control (MELK (human); compound 1.0 µM) of 87%, a per cent of control (MELK (human); compound 10.0 µM) of 75% and a per cent of control (PKN2 (human); compound 1.0 µM) of 117%. It also gave a per cent of control (PKN2 (human); compound 10.0 µM) of 101%, a per cent of control (MAPK12 (human); compound 1.0 µM) of 55% and a per cent of control (MAPK12 (human); compound 10.0 µM) of 17%. For the same molecule, the per cent of control (MARK3 (human); compound 1.0 µM) was 92%, the per cent of control (MARK3 (human); compound 10.0 µM) was 107% and the per cent of control (MAPK11 (human); compound 1.0 µM) was 82%. The per cent of control (MAPK11 (human); compound 10.0 µM) was 81%, the per cent of control (PDPK1 (human); compound 1.0 µM) was 98% and 100% and the per cent of control (PDPK1 (human); compound 10.0 µM) was 80% and 101%. It also gave a per cent of control (DYRK2 (human); compound 1.0 µM) of 92%, a per cent of control (DYRK2 (human); compound 10.0 µM) of 96% and a per cent of control (EPHB3 (human); compound 1.0 µM) of 100%. The per cent of control (EPHB3 (human); compound 10.0 µM) was 116%, the per cent of control (CHEK1 (human); compound 1.0 µM) was 96% and the per cent of control (CHEK1 (human); compound 10.0 µM) was 92%. It also gave a per cent of control (PRKACA (human); compound 1.0 µM) of 103%, a per cent of control (PRKACA (human); compound 10.0 µM) of 100% and a per cent of control (GSK3B (human); compound 1.0 µM) of 86%. For the same molecule, the per cent of control (GSK3B (human); compound 10.0 µM) was 93%, the per cent of control (CAMKK2 (human); compound 1.0 µM) was 102% and the per cent of control (CAMKK2 (human); compound 10.0 µM) was 95%. It also gave a per cent of control (PRKAA1 or PRKAA2 (rat); compound 1.0 µM) of 78%, a per cent of control (PRKAA1 or PRKAA2 (rat); compound 10.0 µM) of 82% and a per cent of control (IGF1R (human); compound 1.0 µM) of 108%. For the same molecule, the per cent of control (IGF1R (human); compound 10.0 µM) was 101%, the per cent of control (MAPK8 (human); compound 1.0 µM) was 93% and the per cent of control (MAPK8 (human); compound 10.0 µM) was 91%. For the same molecule, the per cent of control (ROCK2 (rat); compound 1.0 µM) was 92%, the per cent of control (ROCK2 (rat); compound 10.0 µM) was 97% and the per cent of control (PLK1 (human); compound 1.0 µM) was 105%. It also gave a per cent of control (PLK1 (human); compound 10.0 µM) of 88%, a per cent of control (IKBKE (human); compound 1.0 µM) of 90% and a per cent of control (IKBKE (human); compound 10.0 µM) of 90%. For the same molecule, the per cent of control (CHEK2 (human); compound 1.0 µM) was 86%, the per cent of control (CHEK2 (human); compound 10.0 µM) was 88% and the per cent of control (FLT1 (human); compound 1.0 µM) was 100%. For the same molecule, the per cent of control (FLT1 (human); compound 10.0 µM) was 88%, the per cent of control (FGFR1 (human); compound 1.0 µM) was 95% and the per cent of control (FGFR1 (human); compound 10.0 µM) was 109%. It also gave a per cent of control (MAPKAPK5 (human); compound 1.0 µM) of 98%, a per cent of control (MAPKAPK5 (human); compound 10.0 µM) of 74% and a per cent of control (SYK (human); compound 1.0 µM) of 124%. The per cent of control (SYK (human); compound 10.0 µM) was 127%, the per cent of control (SRPK1 (human); compound 1.0 µM) was 109% and the per cent of control (SRPK1 (human); compound 10.0 µM) was 102%. It also gave a per cent of control (PAK4 (human); compound 1.0 µM) of 93%, a per cent of control (PAK4 (human); compound 10.0 µM) of 97% and a per cent of control (IKBKB (human); compound 1.0 µM) of 97%. The per cent of control (IKBKB (human); compound 10.0 µM) was 100%, the per cent of control (AURKB (human); compound 1.0 µM) was 91% and the per cent of control (AURKB (human); compound 10.0 µM) was 100%. The per cent of control (PRKCA (human); compound 1.0 µM) was 81%, the per cent of control (PRKCA (human); compound 10.0 µM) was 75% and the per cent of control (MAP2K1 (human); compound 1.0 µM) was 82%. It also gave a per cent of control (MAP2K1 (human); compound 10.0 µM) of 79%, a per cent of control (CDK2 CCNA2 (human); compound 1.0 µM) of 111% and a per cent of control (CDK2 CCNA2 (human); compound 10.0 µM) of 104%. For the same molecule, the per cent of control (BTK (human); compound 1.0 µM) was 116%, the per cent of control (BTK (human); compound 10.0 µM) was 99% and the per cent of control (HIPK2 (human); compound 1.0 µM) was 95%. It also gave a per cent of control (HIPK2 (human); compound 10.0 µM) of 94%, a per cent of control (MAPKAPK2 (human); compound 1.0 µM) of 98% and a per cent of control (MAPKAPK2 (human); compound 10.0 µM) of 91%. For the same molecule, the per cent of control (PRKCZ (human); compound 1.0 µM) was 93% and the per cent of control (PRKCZ (human); compound 10.0 µM) was 106%.
